Results taken from ChEMBL document CHEMBL1134829, “7-Alkyl- and 7-cycloalkyl-5-aryl-pyrrolo[2,3-d]pyrimidines--potent inhibitors of the tyrosine kinase c-Src” (Bioorg Med Chem Lett, 2001).

What was measured:
[1] = molecular target: T1, Proto-oncogene tyrosine-protein kinase Src (Gallus gallus, UniProt P00523); assay: Inhibition of p60 c-Src tyrosine kinase activity
[2] = molecular target: T1, Proto-oncogene tyrosine-protein kinase Src; assay: Inhibition of p60 c-Src tyrosine kinase mediated phosphorylation of Fak in IC8.1 fibroblasts; assay type: functional
[3] = molecular target: Tyrosine-protein kinase ABL (Homo sapiens, UniProt P00519+P42684)
Description: Inhibition of v-Abl tyrosine kinase activity

[4] = molecular target: Epidermal growth factor receptor (Homo sapiens, UniProt P00533); assay: Inhibition of Epidermal growth factor receptor (EGF-R) tyrosine kinase activity
[5] = molecular target: T1, Proto-oncogene tyrosine-protein kinase Src; assay: Inhibition of p60 c-Src tyrosine kinase at 830 ng/mL

Epidermal growth factor receptor, sequence (P00533 whole entry): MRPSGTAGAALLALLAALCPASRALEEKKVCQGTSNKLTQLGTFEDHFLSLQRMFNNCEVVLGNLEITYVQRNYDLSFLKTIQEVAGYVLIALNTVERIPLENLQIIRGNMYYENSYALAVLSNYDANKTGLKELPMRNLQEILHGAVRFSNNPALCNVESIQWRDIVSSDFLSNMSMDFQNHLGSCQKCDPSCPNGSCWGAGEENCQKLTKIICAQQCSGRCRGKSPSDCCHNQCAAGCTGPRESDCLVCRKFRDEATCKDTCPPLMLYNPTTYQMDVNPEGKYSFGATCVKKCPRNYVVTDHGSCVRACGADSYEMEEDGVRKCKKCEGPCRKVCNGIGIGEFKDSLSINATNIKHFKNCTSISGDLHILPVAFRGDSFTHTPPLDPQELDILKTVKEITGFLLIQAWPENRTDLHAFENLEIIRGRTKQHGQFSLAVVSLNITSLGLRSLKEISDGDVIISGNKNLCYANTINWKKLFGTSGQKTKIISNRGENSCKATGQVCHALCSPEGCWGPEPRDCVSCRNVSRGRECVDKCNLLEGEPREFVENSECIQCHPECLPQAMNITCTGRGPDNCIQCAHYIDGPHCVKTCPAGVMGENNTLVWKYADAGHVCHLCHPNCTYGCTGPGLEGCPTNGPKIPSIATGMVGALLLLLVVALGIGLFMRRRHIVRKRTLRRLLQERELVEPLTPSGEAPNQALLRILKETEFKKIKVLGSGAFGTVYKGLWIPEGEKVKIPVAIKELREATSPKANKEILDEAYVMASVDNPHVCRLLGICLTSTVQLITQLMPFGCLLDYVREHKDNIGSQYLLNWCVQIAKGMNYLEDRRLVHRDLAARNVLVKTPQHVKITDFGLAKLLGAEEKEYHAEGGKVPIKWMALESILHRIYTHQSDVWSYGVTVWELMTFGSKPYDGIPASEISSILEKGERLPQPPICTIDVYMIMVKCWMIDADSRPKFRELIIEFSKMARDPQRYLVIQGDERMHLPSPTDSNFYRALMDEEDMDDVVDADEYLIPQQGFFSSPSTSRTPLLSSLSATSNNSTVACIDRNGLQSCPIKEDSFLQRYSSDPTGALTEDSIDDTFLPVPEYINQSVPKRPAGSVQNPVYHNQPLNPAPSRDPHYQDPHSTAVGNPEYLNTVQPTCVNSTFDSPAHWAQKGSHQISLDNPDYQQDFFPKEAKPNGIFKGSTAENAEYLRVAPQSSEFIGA

| Structure (SMILES) | IC50 [1] | IC50 [2] | IC50 [3] | IC50 [4] | IC50 [5] |
| --- | --- | --- | --- | --- | --- |
| COc1ccc(-c2cn(C3CCC3)c3ncnc(N)c23)cc1 | 200 nM | 3000 nM | – | – | – |
| COc1ccc(CC(CO)n2cc(-c3cccc(OC)c3)c3c(N)ncnc32)cc1 (stereo unspecified) | 1000 nM | – | – | 9700 nM | – |
| Nc1ncnc2c1c(-c1cccc(O)c1)cn2C1CCC1 | 4 nM | 100 nM | 5 nM | 300 nM | – |
| Nc1ncnc2c1c(-c1ccccc1)cn2C(CO)CCc1ccccc1 (stereo unspecified) | 4000 nM | – | – | – | – |
| COc1cccc(-c2cn(C3CC(CO)C3)c3ncnc(N)c23)c1 (stereo unspecified) | 30 nM | 2000 nM | 40 nM | – | – |
| COc1cccc(-c2cn(C3CCC3)c3ncnc(N)c23)c1 | 40 nM | 600 nM | 50 nM | 450 nM | – |
| Nc1ncnc2c1c(-c1ccccc1)cn2C(CO)Cc1ccccc1 (stereo unspecified) | 600 nM | – | 10500 nM | 440 nM | – |
| COc1cccc(-c2cn(C3CC(C(=O)NCCO)C3)c3ncnc(N)c23)c1 (stereo unspecified) | 20 nM | 4000 nM | 230 nM | 330 nM | – |
| COc1ccc(CC(CO)n2cc(-c3ccccc3)c3c(N)ncnc32)cc1 (stereo unspecified) | > 1000 nM | > 5000 nM | > 10000 nM | 14400 nM | – |
| COc1ccc(CC(CO)n2cc(-c3cccc(O)c3)c3c(N)ncnc32)cc1 (stereo unspecified) | 42 nM | 400 nM | 340 nM | 3400 nM | – |
| COc1cccc(-c2cn(C3CC(CNCCO)C3)c3ncnc(N)c23)c1 (stereo unspecified) | 20 nM | 300 nM | 420 nM | 490 nM | – |
| Nc1ncnc2c1c(-c1ccccc1)cn2[C@H](CO)c1ccccc1 | – | – | – | – | 4900 nM |
| Nc1ncnc2c1c(-c1ccccc1)cn2[C@@H](CO)c1ccccc1 | 480 nM | > 5000 nM | – | – | – |
| Nc1ncnc2c1c(-c1ccccc1)cn2C(CO)Cc1ccc(O)cc1 (stereo unspecified) | 1900 nM | – | 2200 nM | 13200 nM | – |

Further lines, results first:

| IC50 [1] | IC50 [2] | IC50 [3] | IC50 [4] | IC50 [5] | Structure (SMILES) |
| --- | --- | --- | --- | --- | --- |
| 10 nM | 1500 nM | 85 nM | 600 nM | – | Nc1ncnc2c1c(-c1ccc(O)cc1)cn2C1CCC1 |
| 1 nM | 200 nM | – | 80 nM | – | Nc1ncnc2c1c(-c1cccc(O)c1)cn2C1CCCC1 |
| 2 nM | 170 nM | 170 nM | 460 nM | – | COc1cccc(-c2cn(C3CCCC3)c3ncnc(N)c23)c1 |
| 110 nM | 1000 nM | 90 nM | 730 nM | – | Nc1ncnc2c1c(-c1ccccc1)cn2C1CCC1 |
| 50 nM | 200 nM | 40 nM | 790 nM | – | Nc1ncnc2c1c(-c1ccccc1)cn2C1CCC(O)C1 (stereo unspecified) |
| 140 nM | 1800 nM | 140 nM | 500 nM | – | Nc1ncnc2c1c(-c1ccccc1)cn2C1CCCC1 |
| 80 nM | 1200 nM | 260 nM | 570 nM | – | COc1ccc(-c2cn(C3CCCC3)c3ncnc(N)c23)cc1 |
| 20 nM | 300 nM | 110 nM | 250 nM | – | Nc1ncnc2c1c(-c1ccc(O)cc1)cn2C1CCCC1 |
| 20 nM | 4000 nM | 390 nM | 2820 nM | – | Nc1ncnc2c1c(-c1ccccc1)cn2C1CC(O)C1 (stereo unspecified) |
